Source: paper PMC6801448, “The Antioxidant and Antiproliferative Activities of 1,2,3-Triazolyl-L-Ascorbic Acid Derivatives” (International Journal of Molecular Sciences, 2019)
“Also recorded” adds a separate entry of the source.

Experiments:
NOS2 = assay: Western blot of NOS2 in MCF-7 cells; type: cell-based, Human; conditions: MCF-7, 6.72 µM, 48 h
Description: (§1) Protein lysates were prepared using RIPA buffer containing cocktail of protease and phosphatase inhibitors (Roche, Basel, Switzerland). Amounts of 50 μg of proteins were resolved on 12% SDS polyacrylamide gels using the Mini-protean cell (Bio-Rad, Hercules, CA, USA). The membranes were incubated with primary antibodies raised against hydroxy-HIF-1α (Pro564) (HIF-1α, 1:1000, rabbit mAb, Cell Signaling Technology, NL) and NOS2 (1:500, mouse mAb, SantaCruzBiotechnology, Dallas, TX, USA) at 4 °C overnight. A secondary antibody linked to anti-mouse (1:1000, Dako, Santa Clara, CA, USA) was used. The signal was visualized by the Western Lightening Chemiluminescence Reagent Plus Kit (Perkin Elmer, Massachusetts, MA, USA) on the ImageQuant LAS500 (GE Healthcare, Chicago, IL, USA), and as a loading control, α-tubulin (1:1000, mouse mAb, Sigma, Sigma Aldrich, Darmstadt, Germany) was used. The signal intensities of bands were normalized and compared in Quantity One software (Bio-Rad, Hercules, CA, USA). Differences in protein relative expression status obtained by western blot analysis were analyzed by two-tailed, paired t-tests (p < 0.05) in the Statistica software package (v.12.0).

[1] = system: hydroxylated HIF-1α (Pro564); assay: Western blot of hydroxy-HIF-1α in MCF-7 cells; type: cell-based, Human; conditions: MCF-7, 6.72 µM, 48 h
Description: as §1

[2] = design: method as in PMID 20925411; conditions: experimental acid dissociation constant; cited from earlier work
[3] = system: tested cell lines (A549, CFPAC-1, HCT-116, HeLa, HepG2, MCF-7, SW620, WI-38, HFF-1); assay: MTT proliferation assay, whole tested cell panel; type: cell-based, Human; conditions: 0.01 µM to 100 µM, 72 h
Description: The C-6 substituted 1,2,3-triazole derivatives of L-ASA within the C5-OH group ([…], 4i, 4k−4t, and 4v) and with the C4=C5 double bond (7c−7g and 7i−7q) were evaluated against seven malignant tumor cell lines: lung adenocarcinoma (A549), ductal pancreatic adenocarcinoma (CFPAC-1), colorectal carcinoma (HCT-116), cervical carcinoma (HeLa), hepatocellular carcinoma (HepG2), breast adenocarcinoma (MCF-7), colorectal adenocarcinoma, and metastatic (SW620); as well as normal cell lines: lung fibroblasts (WI-38) and foreskin fibroblasts (HFF-1) (Table 3, Table S1, Supplementary Information). L-ASA was used as a positive control, and carboxyamidotriazole, a known antiproliferative agent that inhibits tumor cell growth, invasion, and metastasis, and 5-fluorouracil (5-FU), were used as reference compounds.
Human tumor cell lines HeLa (cervical carcinoma), SW620 (colorectal adenocarcinoma, metastatic), A549 (lung adenocarcinoma), MCF−7 (breast adenocarcinoma), CFPAC-1 (pancreatic adenocarcinoma, metastatic), HCT-116 (colorectal carcinoma), and HepG2 (hepatocellular carcinoma), and normal cell lines HFF-1 (foreskin fibroblasts) and WI-38 (immortalized human lung fibroblast), were from the US American Type Culture Collection (ATCC, Manassas, VA, USA). Cells were cultured in a liquid nutrient medium (Dulbecco’s Modified Eagle Medium, LONZA, Basel, Switzerland) supplemented with 10% fetal bovine serum (FBS, Gibco, Grand Island, NY, USA), 2 mM L-glutamine (GIBCO, Grand Island, NY, USA), 100 μg/mL penicillin, and 100 μg/mL streptomycin (LONZA, Basel, Switzerland), in an incubator (NÜVE, Ankara, Turkey), at a humid atmosphere with 5% CO2 at 37 °C. Trypsin/EDTA Solution (Lonza, Basel, Switzerland), was used for cell passaging and cell detachment.
Adherent cells were seeded on 96 well microtiter plates (Falcon, New York, NY, USA) at a seeding density of 5000 cells per well, added in 150 μL of cell suspension in a nutrient medium. 24 h after seeding, cells were treated with compound 4b–4g, 4i, 4k–4t, 4v, 7c–7g, and 7i–7q dilutions in the range of 0.01 μM to 100 μM. L-ascoric acid (Sigma Aldrich, Darmstadt, Germany) and Carboxyamidotriazole (Sigma Aldrich, Darmstadt, Germany) were used as control compounds. Incubation of the cells with the compounds were performed for 72 h in a 5% CO2, in humid atmosphere at 37 °C. After incubation, nutrient medium was removed and 40 μL of the MTT reagent ([…]-2,5-diphenyltetrazole bromide (Invitrogen, Carlsbad, CA, USA) was added to each well. 3 h after incubation, 160 μL of DMSO (VWR CHEMICALS, Radnor, PA, USA) were added to each well to dissolve the crystals of purple formazane. The absorbance was measured at 570 nm (TECAN SUNRISE Microtiter plate reader (Männedorf, Switzerland). The experimentally measured optical densities (OD) were converted to the PG (percentage of growth), using the formulas according to the protocol assumed by NIH (National Institute of Health). The IC50 values (concentration causing 50% cell growth inhibition) for each compound were calculated by regression analysis of the survival count curve of the concentrations of the tested compounds. The results were processed in Excel 2010 (Microsoft, Redmond, WA, USA).

Row | Structure (SMILES) | NOS2 expression (NOS2) | hydroxylated HIF-1α (Pro564) expression [1] | melting point | pKa,2 (experimental) [2] | antiproliferative / cytotoxic effect on the tested cell lines (in words) [3]
1 | O=C1O[C@H]([C@@H](O)Cn2cc(-c3ccc(Br)cc3)nn2)C(O)=C1O [Compound 4e, 6-[4-(4-bromophenyl)-1,2,3-triazol-1-yl]-6-deoxy-L-ascorbic acid] | decreased expression; also recorded: somewhat decreased | statistically significant increase; also recorded: strongly increased | 159 to 160 °C |  | 
2 | O=C1O[C@H]([C@@H](O)CO)C(O)=C1O [L-ASA, L-ascorbic acid] |  |  |  | 11.4 | no effects on the cell growth
